Measured values: ChEMBL document CHEMBL5338752, “Carbamate JNK3 Inhibitors Show Promise as Effective Treatments for Alzheimer's Disease: In Vivo Studies on Mouse Models” (J Med Chem, 2023)
Activity calls are given as the source filed them. The calls are words filed in the database; no cut-off is given here.

Assays:
[1] = Effective permeability of compound by […] method; type: ADME; conditions: read-out: Peff
[2] = AUC in sixteen hrs fasted Sprague-Dawley rat at 3 mg/kg, po measured upto 24 hrs by LC-MS/MS analysis; type: ADME, organism-based; design: time < 24 hrs, dose 3 mg/kg, route po; conditions: in vivo
[3] = Cmax in sixteen hrs fasted Sprague-Dawley rat at 3 mg/kg, po measured upto 24 hrs by LC-MS/MS analysis; type: ADME, organism-based; design: time < 24 hrs, dose 3 mg/kg, route po; conditions: in vivo
[4] = tested on: Neuron; assay: Neuroprotective activity against rat neuron cells assessed as inhibition of Abeta(1-42)-induced cytotoxicity by measuring increase in cell viability at 20 uM incubated for 24 hrs by MTT assay relative to control; type: functional
[5] = AUC in sixteen hrs fasted Sprague-Dawley rat at 1 mg/kg, iv measured upto 24 hrs by LC-MS/MS analysis; type: ADME, organism-based; design: time < 24 hrs, dose 1 mg/kg, route iv; conditions: in vivo
[6] = Cmax in sixteen hrs fasted Sprague-Dawley rat at 1 mg/kg, iv measured upto 24 hrs by LC-MS/MS analysis; type: ADME, organism-based; design: dose 1 mg/kg, time < 24 hrs, route iv; conditions: in vivo
[7] = target: Mitogen-activated protein kinase 8 (Homo sapiens, UniProt P45983); assay: Inhibition of JNK1 (unknown origin) using ATF2 as substrate incubated for 40 mins in presence of [gamma33P]ATP by scintillation counting analysis
[8] = target: Mitogen-activated protein kinase 9 (Homo sapiens, UniProt P45984); assay: Inhibition of JNK2 (unknown origin) using ATF2 as substrate incubated for 40 mins in presence of [gamma33P]ATP by scintillation counting analysis
[9] = target: Mitogen-activated protein kinase 10 (Homo sapiens, UniProt P53779); assay: Inhibition of JNK3 (unknown origin) using ATF2 as substrate incubated for 40 mins in presence of [gamma33P]ATP by scintillation counting analysis
[10] = tested on: Neuron; assay: Neuroprotective activity against rat neuron cells assessed as inhibition of Abeta(1-42)-induced cytotoxicity by measuring increase in cell viability at 20 uM incubated for 48 hrs by MTT assay relative to control; type: functional
[11] = target: Mitogen-activated protein kinase 10 (Rattus norvegicus) (UniProt P49187); assay: Inhibition of anisomycin induced JNK3 activation in rat cortex neuron cells assessed as reduction in Jun phosphorylation levels at 10 to 20 uM preincubated for 90 mins followed by anisomycin addition and measured after 40 mins by Western blot analysis; type: cell-based; conditions: dose 10-20 µM, time 130.0 min
[12] = target: Mitogen-activated protein kinase 10 (Rattus norvegicus) (UniProt P49187); assay: Inhibition of A-beta (1 to 42) induced JNK3 activation in rat cortex neuron cells assessed as reduction in c-Jun phosphorylation levels at 10 to 20 uM incubated for 24 hrs in presence of A-beta (1 to 42) by Western blot analysis; type: cell-based; conditions: dose 10-20 µM
[13] = tested on: Neuron; assay: Inhibition of apoptosis in rat cortex neuron cells assessed as prevention of A-beta (1 to 42) induced cleaved caspase-3 formation at 10 to 20 uM measured after 24 hrs by Western blot analysis; type: functional, cell-based; conditions: dose 10-20 µM
[14] = tested on: Neuron; assay: Inhibition of apoptosis in rat cortex neuron cells assessed as prevention of A-beta (1 to 42) induced cleaved PARP formation at 10 to 20 uM measured after 24 hrs by Western blot analysis; type: functional, cell-based; conditions: dose 10-20 µM
[15] = target: Mitogen-activated protein kinase 10 (Rattus norvegicus) (UniProt P49187); assay: Inhibition of anisomycin induced JNK3 activation in rat cortex neuron cells assessed as inhibition of APP phosphorylation at 10 to 20 uM preincubated for 90 mins followed by anisomycin addition and measured after 40 mins by Western blot analysis; type: cell-based; conditions: dose 10-20 µM
[16] = AUClast in sixteen hrs fasted Sprague-Dawley rat at 3 mg/kg, po measured upto 24 hrs by LC-MS/MS analysis; type: ADME, organism-based; design: dose 3 mg/kg, time < 24 hrs, route po; conditions: in vivo
[17] = Tmax in sixteen hrs fasted Sprague-Dawley rat at 3 mg/kg, po measured upto 24 hrs by LC-MS/MS analysis; type: ADME, organism-based; conditions: in vivo
[18] = Half life in sixteen hrs fasted Sprague-Dawley rat at 3 mg/kg, po measured upto 24 hrs by LC-MS/MS analysis; type: ADME, organism-based; conditions: in vivo
[19] = Apparent permeability of the compound across apical side to basolateral side in human Caco-2 cells; type: ADME, cell-based
[20] = Apparent permeability of the compound across basolateral side to apical side in human Caco-2 cells; type: ADME, cell-based
[21] = Efflux ratio of apparent permeability across basolateral to apical side to apical to basolateral side in human Caco-2 cells; type: ADME, cell-based
[22] = tested on: Mus musculus; assay: Anti-alzheimer activity against APP/PS1 dE9 double transgenic mouse model assessed as spontaneous alteration at 30 mg/kg, po administered daily for 2 months and measured after 57 days by Y-maze test (reference value: 45.69+/-2.33%); type: functional; conditions: time 57 day
[23] = tested on: Mus musculus; assay: Anti-alzheimer activity against APP/PS1 dE9 double transgenic mouse model assessed as spontaneous alteration at 60 mg/kg, po administered daily for 2 months and measured after 57 days by Y-maze test (reference value: 45.69+/-2.33%); type: functional; conditions: time 57 day
[24] = tested on: Mus musculus; assay: Anti-alzheimer activity against APP/PS1 dE9 double transgenic mouse model assessed as escape latency time at 30 mg/kg, po administered daily for 2 months and measured after 60 days by Passive avoidance test (reference value: 55.3+/-8.2 sec); type: functional; conditions: time 60 day
[25] = tested on: Mus musculus; assay: Anti-alzheimer activity against APP/PS1 dE9 double transgenic mouse model assessed as escape latency time at 60 mg/kg, po administered daily for 2 months and measured after 60 days by Passive avoidance test (reference value: 55.3+/-8.2 sec); type: functional; conditions: time 60 day
[26] = tested on: Mus musculus; assay: Anti-alzheimer activity against APP/PS1 dE9 double transgenic mouse model assessed as time spent in platform quadrant at 30 mg/kg, po administered daily for 2 months and measured after 74 days by Morris water maze test (reference value: 14.40+/-1.60 %); type: functional; conditions: time 74 day
[27] = tested on: Mus musculus; assay: Anti-alzheimer activity against APP/PS1 dE9 double transgenic mouse model assessed as time spent in platform quadrant at 60 mg/kg, po administered daily for 2 months and measured after 74 days by Morris water maze test (reference value: 14.40+/-1.60 %); type: functional; conditions: time 74 day
[28] = tested on: Mus musculus; assay: Anti-alzheimer activity against APP/PS1 dE9 double transgenic mouse model assessed as time spent in target zone at 30 mg/kg, po administered daily for 2 months and measured after 74 days by Morris water maze test (reference value: 10.56+/-1.59 %); type: functional; conditions: time 74 day
[29] = tested on: Mus musculus; assay: Anti-alzheimer activity against APP/PS1 dE9 double transgenic mouse model assessed as time spent in target zone at 60 mg/kg, po administered daily for 2 months and measured after 74 days by Morris water maze test (reference value: 10.56+/-1.59 %); type: functional; conditions: time 74 day

Chain of Mitogen-activated protein kinase 9 (P45984 whole entry): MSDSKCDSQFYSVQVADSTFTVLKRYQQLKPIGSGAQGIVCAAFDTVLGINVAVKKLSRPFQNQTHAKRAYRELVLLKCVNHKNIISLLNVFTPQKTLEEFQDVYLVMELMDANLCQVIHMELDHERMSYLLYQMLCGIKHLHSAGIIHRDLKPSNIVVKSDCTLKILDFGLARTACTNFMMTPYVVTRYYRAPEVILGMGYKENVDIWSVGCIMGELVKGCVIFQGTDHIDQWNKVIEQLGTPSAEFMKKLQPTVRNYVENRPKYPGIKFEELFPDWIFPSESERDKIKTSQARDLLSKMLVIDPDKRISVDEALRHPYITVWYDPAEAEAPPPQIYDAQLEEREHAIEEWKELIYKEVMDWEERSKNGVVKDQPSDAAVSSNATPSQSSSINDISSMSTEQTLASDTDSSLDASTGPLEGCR
Chain of Mitogen-activated protein kinase 10 (Rattus norvegicus) (P49187 whole entry): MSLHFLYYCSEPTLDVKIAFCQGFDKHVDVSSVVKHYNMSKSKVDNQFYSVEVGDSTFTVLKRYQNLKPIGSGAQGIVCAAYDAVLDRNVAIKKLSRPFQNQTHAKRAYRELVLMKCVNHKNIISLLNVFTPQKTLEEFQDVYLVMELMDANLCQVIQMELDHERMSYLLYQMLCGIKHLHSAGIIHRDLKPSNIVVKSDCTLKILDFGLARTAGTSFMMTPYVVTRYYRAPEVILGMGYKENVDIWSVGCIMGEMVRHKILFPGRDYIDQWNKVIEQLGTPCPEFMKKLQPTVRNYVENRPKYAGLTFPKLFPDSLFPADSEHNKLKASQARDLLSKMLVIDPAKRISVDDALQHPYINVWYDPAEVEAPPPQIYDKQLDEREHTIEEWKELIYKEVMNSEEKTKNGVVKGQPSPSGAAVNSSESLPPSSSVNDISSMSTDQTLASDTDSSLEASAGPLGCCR
Chain of Mitogen-activated protein kinase 8 (P45983 whole entry): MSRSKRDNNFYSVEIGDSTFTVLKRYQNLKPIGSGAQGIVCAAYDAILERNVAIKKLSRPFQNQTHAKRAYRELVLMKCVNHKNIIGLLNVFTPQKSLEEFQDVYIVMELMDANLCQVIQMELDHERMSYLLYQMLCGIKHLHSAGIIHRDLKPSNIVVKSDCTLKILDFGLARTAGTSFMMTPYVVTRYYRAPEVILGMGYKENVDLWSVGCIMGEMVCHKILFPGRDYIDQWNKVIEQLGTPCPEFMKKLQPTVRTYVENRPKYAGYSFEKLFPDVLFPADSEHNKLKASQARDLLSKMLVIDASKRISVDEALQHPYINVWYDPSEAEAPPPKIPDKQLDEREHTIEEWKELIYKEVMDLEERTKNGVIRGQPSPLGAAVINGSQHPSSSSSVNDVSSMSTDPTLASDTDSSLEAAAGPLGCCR
Chain of Mitogen-activated protein kinase 10 (P53779 whole entry): as the sequence (P49187 whole entry) above, with H27Q, S32Y, V33I, V34A counted along it

Row | Structure (SMILES) | Papp [1] | AUC at 24 h [2] | Cmax [3] | Activity [4] | IC50 [7] | IC50 [8] | Activity [10] | also measured
1 | CC(=O)[C@H]1CC[C@H]2[C@@H]3CCC4=CC(=O)CC[C@]4(C)[C@H]3CC[C@]12C [PROGESTERONE] | 26.5 ×10⁻⁶ cm/s |  |  |  |  |  |  | 
2 | NC(=O)Oc1ccc2nc(-c3ccc4ccccc4c3)n(-c3ccnc(N[C@H]4CCCN(C(=O)C5CC5)C4)n3)c2c1 |  | 345 ng·h/mL | 277 ng/mL |  |  |  |  | 
3 | N#CCc1cnc(-c2ccc3ccccc3c2)n1-c1ccnc(N[C@H]2CCCN(C(=O)C3CC3)C2)n1 |  | 392 ng·h/mL |  | 14.1% |  |  |  | AUC at 24 h [5]: 614 ng·h/mL; Cmax [6]: 1120 ng/mL
4 | CN(C)C(=O)Oc1ccc2nc(-c3ccc4ccccc4c3)n(-c3ccnc(N[C@H]4CCCN(C(=O)C5CC5)C4)n3)c2c1 |  | 554 ng·h/mL | 483 ng/mL |  |  |  |  | 
5 | O=C(C1CC1)N1CCC[C@H](Nc2nccc(-n3c(-c4ccc5ccccc5c4)nc4c(F)cc(O)cc43)n2)C1 | 22.9 ×10⁻⁶ cm/s |  | 423 ng/mL | 59.5% | 0.705 µM | 0.151 µM | 35.2% | IC50 [9]: 0.01 µM; inhibition [11]: Active; inhibition [12]: Active; inhibition [13]: Active; inhibition [14]: Active; inhibition [15]: Active
6 | CCNC(=O)Oc1ccc2nc(-c3ccc4ccccc4c3)n(-c3ccnc(N[C@H]4CCCN(C(=O)C5CC5)C4)n3)c2c1 |  | 260 ng·h/mL | 253 ng/mL |  |  |  |  | 
7 | O=C(C1CC1)N1CCC[C@H](Nc2nccc(-n3c(-c4ccc5ccccc5c4)nc4ccc(O)cc43)n2)C1 | 35.1 ×10⁻⁶ cm/s |  |  | 41.2% | 0.301 µM | 0.125 µM | 21.8% | AUC at 24 h [5]: 349 ng·h/mL; Cmax [6]: 1510 ng/mL
8 | CNC(=O)Oc1ccc2nc(-c3ccc4ccccc4c3)n(-c3ccnc(N[C@H]4CCCN(C(=O)C5CC5)C4)n3)c2c1 | 67.2 ×10⁻⁶ cm/s | 351 ng·h/mL | 342 ng/mL | 34.8% | 1.04 µM | 0.973 µM | 17.2% | IC50 [9]: 0.053 µM; AUC(0-t) at 24 h [16]: 351 ng·h/mL; Tmax [17]: 23.4 min; half-life [18]: 39 min; Papp A→B [19]: 4.9 ×10⁻⁶ cm/s; Papp B→A [20]: 11.3 ×10⁻⁶ cm/s; efflux ratio [21]: 2.31; Activity [22]: 52.7%; Activity [23]: 53.46%; Time [24]: 61.6 s; Time [25]: 59.3 s; Activity [26]: 16.84%; Activity [27]: 21.12%; Activity [28]: 12.57%; Activity [29]: 16.42%
